Measured values taken from patent US20100298141A1, “SUBSTITUTED PYRIDINE N-OXIDE HERBICIDES” (E. I. DU PONT DE NEMOURS AND COMPANY, priority 2007, published 2010).

How the values were obtained:
Test in all cases: Test F preemergence test
Conditions in all cases: scale 0 to 100
[1] = test system: green foxtail; type: in vivo, Setaria viridis
Excerpt: (§1) Seeds of plant species selected from bermudagrass (Cynodon dactylon), Surinam grass (Brachiaria decumbens), large crabgrass (Digitaria sanguinalis), green foxtail (Setaria viridis), goosegrass (Eleusine indica), johnsongrass (Sorghum halepense), kochia (Kochia scoparia), pitted morningglory (Ipomoea lacunosa), purple nutsedge (Cyperus rotundus), common ragweed (Ambrosia elation), mustard (Brassica nigra), guineagrass (Panicum maximum), […] (Paspalum dilatatum), barnyardgrass (Echinochloa crus-galli), southern sandbur (Cenchrus echinatus), common sowthistle (Sonchus oleraceous), prickly […] spinosa), Italian ryegrass (Lolium multiflorum), common purslane (Portulaca oleracea), broadleaf signalgrass (Brachiaria platyphylla), common groundsel (Senecio vulgaris), common chickweed (Stellaria media), Virginia dayflower (Commelina virginica), annual bluegrass (Poa annua), naked crabgrass (Digitaria nuda), […] cochinchinensis), quackgrass (Elytrigia repens), Canada horseweed (Conyza canadensis), field bindweed (Convolvulus arvensis), […] (Bidens bipinnata), common mallow (Malva sylvestris), Russian thistle (Salsola kali), and sugarcane (Saccharum officinarum) were planted and treated preemergence with test chemicals formulated in a non-phytotoxic solvent mixture which included a surfactant. At a different time, sugarcane was treated with postemergence applications of some of the test chemicals formulated in the same manner. Plants were approximately 3- to 4-leaf stage for the postemergence treatments. Treated plants and controls were maintained in a greenhouse for 14 to 21 days, after which time all species were compared to controls and visually evaluated. […] A dash (-) response means no test result.

[2] = test system: johnsongrass; type: in vivo, Sorghum halepense
Excerpt: as §1

[3] = test system: pitted morningglory; type: in vivo, Ipomoea lacunosa
Excerpt: as §1

[4] = test system: guineagrass; type: in vivo, Panicum maximum
Excerpt: as §1

[5] = test system: dallisgrass; type: in vivo, Paspalum dilatatum
Excerpt: as §1

[6] = test system: common sowthistle; type: in vivo, Sonchus oleraceous
Excerpt: as §1

[7] = test system: prickly sida; type: in vivo, Sida spinosa
Excerpt: as §1

[8] = test system: common purslane; type: in vivo, Portulaca oleracea
Excerpt: as §1

[9] = test system: common groundsel; type: in vivo, Senecio vulgaris
Excerpt: as §1

[10] = test system: Virginia dayflower; type: in vivo, Commelina virginica
Excerpt: as §1

[11] = test system: annual bluegrass; type: in vivo, Poa annua
Excerpt: as §1

[12] = test system: naked crabgrass; type: in vivo, Digitaria nuda
Excerpt: as §1

[13] = test system: itchgrass; type: in vivo, Rottboellia cochinchinensis
Excerpt: as §1

[14] = test system: Canada horseweed; type: in vivo, Conyza canadensis
Excerpt: as §1

[15] = test system: field bindweed; type: in vivo, Convolvulus arvensis
Excerpt: as §1

[16] = test system: common mallow; type: in vivo, Malva sylvestris
Excerpt: as §1

Cc1cc[n+]([O-])c(S(=O)(=O)Cc2c(C(F)(F)F)nn(C)c2Cl)c1 [Compound 19]
Foxtail, Green plant response rating ([1]; 62 g ai/ha, Preemergence): 75 | Foxtail, Green plant response rating ([1]; 125 g ai/ha, preemergence): 90 | Plant response rating, Foxtail, Green ([1]; Preemergence, 16 g ai/ha): 0 | Plant response rating, Foxtail, Green ([1]; Preemergence, 31 g ai/ha): 50 | Johnsongrass plant response rating ([2]; 62 g ai/ha, Preemergence): 90 | Johnsongrass plant response rating ([2]; 125 g ai/ha, preemergence): 98 | Plant response rating, Johnsongrass ([2]; Preemergence, 16 g ai/ha): 40 | Plant response rating, Johnsongrass ([2]; Preemergence, 31 g ai/ha): 75 | Morningglory plant response rating ([3]; 62 g ai/ha, Preemergence): 0 | Morningglory plant response rating ([3]; 125 g ai/ha, preemergence): 0 | Plant response rating, Morningglory ([3]; Preemergence, 16 g ai/ha): 0 | Plant response rating, Morningglory ([3]; Preemergence, 31 g ai/ha): 0 | Guineagrass plant response rating ([4]; 62 g ai/ha, Preemergence): 100 | Guineagrass plant response rating ([4]; 125 g ai/ha, preemergence): 100 | Plant response rating, Guineagrass ([4]; Preemergence, 16 g ai/ha): 50 | Plant response rating, Guineagrass ([4]; Preemergence, 31 g ai/ha): 80 | Dallisgrass plant response rating ([5]; 62 g ai/ha, Preemergence): 65 | Dallisgrass plant response rating ([5]; 125 g ai/ha, preemergence): 90 | Plant response rating, Dallisgrass ([5]; Preemergence, 16 g ai/ha): 0 | Plant response rating, Dallisgrass ([5]; Preemergence, 31 g ai/ha): 20 | Sowthistle plant response rating ([6]; 62 g ai/ha, Preemergence): 80 | Sowthistle plant response rating ([6]; 125 g ai/ha, preemergence): 95 | Plant response rating, Sowthistle ([6]; Preemergence, 31 g ai/ha): 0 | Prickly Sida plant response rating ([7]; 62 g ai/ha, Preemergence): 30 | Prickly Sida plant response rating ([7]; 125 g ai/ha, preemergence): 60 | Plant response rating, Prickly Sida ([7]; Preemergence, 16 g ai/ha): 0 | Plant response rating, Prickly Sida ([7]; Preemergence, 31 g ai/ha): 20 | Purslane plant response rating ([8]; 62 g ai/ha, Preemergence): 0 | Purslane plant response rating ([8]; 125 g ai/ha, preemergence): 0 | Plant response rating, Purslane ([8]; Preemergence, 16 g ai/ha): 0 | Plant response rating, Purslane ([8]; Preemergence, 31 g ai/ha): 0 | Groundsel plant response rating ([9]; 62 g ai/ha, Preemergence): 15 | Groundsel plant response rating ([9]; 125 g ai/ha, preemergence): 70 | Plant response rating, Groundsel ([9]; Preemergence, 16 g ai/ha): 0 | Plant response rating, Groundsel ([9]; Preemergence, 31 g ai/ha): 0 | Dayflower plant response rating ([10]; 62 g ai/ha, Preemergence): 30 | Dayflower plant response rating ([10]; 125 g ai/ha, preemergence): 90 | Plant response rating, Dayflower ([10]; Preemergence, 16 g ai/ha): 0 | Plant response rating, Dayflower ([10]; Preemergence, 31 g ai/ha): 0 | Bluegrass plant response rating ([11]; 62 g ai/ha, Preemergence): 0 | Bluegrass plant response rating ([11]; 125 g ai/ha, preemergence): 95 | Plant response rating, Bluegrass ([11]; Preemergence, 16 g ai/ha): 0 | Plant response rating, Bluegrass ([11]; Preemergence, 31 g ai/ha): 0 | Crabgrass, Naked plant response rating ([12]; 62 g ai/ha, Preemergence): 100 | Crabgrass, Naked plant response rating ([12]; 125 g ai/ha, preemergence): 100 | Plant response rating, Crabgrass, Naked ([12]; Preemergence, 16 g ai/ha): 70 | Plant response rating, Crabgrass, Naked ([12]; Preemergence, 31 g ai/ha): 70 | Itchgrass plant response rating ([13]; 62 g ai/ha, Preemergence): 25 | Itchgrass plant response rating ([13]; 125 g ai/ha, preemergence): 50 | Plant response rating, Itchgrass ([13]; Preemergence, 16 g ai/ha): 0 | Plant response rating, Itchgrass ([13]; Preemergence, 31 g ai/ha): 0 | Horseweed plant response rating ([14]; 62 g ai/ha, Preemergence): 0 | Horseweed plant response rating ([14]; 125 g ai/ha, preemergence): 100 | Plant response rating, Horseweed ([14]; Preemergence, 16 g ai/ha): 0 | Plant response rating, Horseweed ([14]; Preemergence, 31 g ai/ha): 0 | Field Bindweed plant response rating ([15]; 62 g ai/ha, Preemergence): 0 | Field Bindweed plant response rating ([15]; 125 g ai/ha, preemergence): 15 | Plant response rating, Field Bindweed ([15]; Preemergence, 16 g ai/ha): 0 | Plant response rating, Field Bindweed ([15]; Preemergence, 31 g ai/ha): 0 | Mallow plant response rating ([16]; 62 g ai/ha, Preemergence): 0 | Mallow plant response rating ([16]; 125 g ai/ha, preemergence): 40 | Plant response rating, Mallow ([16]; Preemergence, 16 g ai/ha): 0 | Plant response rating, Mallow ([16]; Preemergence, 31 g ai/ha): 0

CCn1nc(C(F)(F)F)c(CS(=O)(=O)c2cccc[n+]2[O-])c1OCC(F)(F)F [Compound 63]
Plant response rating, Foxtail, Green ([1]; 16 g ai/ha, preemergence): 65 | Foxtail, Green plant response rating ([1]; 62 g ai/ha, Preemergence): 90 | Foxtail, Green plant response rating ([1]; 125 g ai/ha, preemergence): 100 | Plant response rating, Foxtail, Green ([1]; Preemergence, 31 g ai/ha): 80 | Plant response rating, Johnsongrass ([2]; 16 g ai/ha, preemergence): 35 | Johnsongrass plant response rating ([2]; 62 g ai/ha, Preemergence): 100 | Johnsongrass plant response rating ([2]; 125 g ai/ha, preemergence): 100 | Plant response rating, Johnsongrass ([2]; Preemergence, 31 g ai/ha): 80 | Plant response rating, Morningglory ([3]; 16 g ai/ha, preemergence): 0 | Morningglory plant response rating ([3]; 62 g ai/ha, Preemergence): 0 | Morningglory plant response rating ([3]; 125 g ai/ha, preemergence): 35 | Plant response rating, Morningglory ([3]; Preemergence, 31 g ai/ha): 0 | Plant response rating, Guineagrass ([4]; 16 g ai/ha, preemergence): 70 | Guineagrass plant response rating ([4]; 62 g ai/ha, Preemergence): 100 | Guineagrass plant response rating ([4]; 125 g ai/ha, preemergence): 100 | Plant response rating, Guineagrass ([4]; Preemergence, 31 g ai/ha): 95 | Plant response rating, Dallisgrass ([5]; 16 g ai/ha, preemergence): 15 | Dallisgrass plant response rating ([5]; 62 g ai/ha, Preemergence): 80 | Dallisgrass plant response rating ([5]; 125 g ai/ha, preemergence): 100 | Plant response rating, Dallisgrass ([5]; Preemergence, 31 g ai/ha): 50 | Plant response rating, Prickly Sida ([7]; 16 g ai/ha, preemergence): 20 | Prickly Sida plant response rating ([7]; 62 g ai/ha, Preemergence): 65 | Prickly Sida plant response rating ([7]; 125 g ai/ha, preemergence): 90 | Plant response rating, Prickly Sida ([7]; Preemergence, 31 g ai/ha): 65 | Plant response rating, Purslane ([8]; 16 g ai/ha, preemergence): 0 | Purslane plant response rating ([8]; 62 g ai/ha, Preemergence): 0 | Purslane plant response rating ([8]; 125 g ai/ha, preemergence): 20 | Plant response rating, Purslane ([8]; Preemergence, 31 g ai/ha): 0 | Plant response rating, Groundsel ([9]; 16 g ai/ha, preemergence): 0 | Groundsel plant response rating ([9]; 62 g ai/ha, Preemergence): 0 | Groundsel plant response rating ([9]; 125 g ai/ha, preemergence): 0 | Plant response rating, Groundsel ([9]; Preemergence, 31 g ai/ha): 0 | Plant response rating, Dayflower ([10]; 16 g ai/ha, preemergence): 0 | Dayflower plant response rating ([10]; 62 g ai/ha, Preemergence): 100 | Dayflower plant response rating ([10]; 125 g ai/ha, preemergence): 100 | Plant response rating, Dayflower ([10]; Preemergence, 31 g ai/ha): 100 | Plant response rating, Bluegrass ([11]; 16 g ai/ha, preemergence): 25 | Bluegrass plant response rating ([11]; 62 g ai/ha, Preemergence): 90 | Bluegrass plant response rating ([11]; 125 g ai/ha, preemergence): 100 | Plant response rating, Bluegrass ([11]; Preemergence, 31 g ai/ha): 65 | Plant response rating, Crabgrass, Naked ([12]; 16 g ai/ha, preemergence): 70 | Crabgrass, Naked plant response rating ([12]; 62 g ai/ha, Preemergence): 100 | Crabgrass, Naked plant response rating ([12]; 125 g ai/ha, preemergence): 100 | Plant response rating, Crabgrass, Naked ([12]; Preemergence, 31 g ai/ha): 70 | Plant response rating, Itchgrass ([13]; 16 g ai/ha, preemergence): 10 | Itchgrass plant response rating ([13]; 62 g ai/ha, Preemergence): 80 | Itchgrass plant response rating ([13]; 125 g ai/ha, preemergence): 90 | Plant response rating, Itchgrass ([13]; Preemergence, 31 g ai/ha): 50 | Plant response rating, Horseweed ([14]; 16 g ai/ha, preemergence): 0 | Horseweed plant response rating ([14]; 62 g ai/ha, Preemergence): 98 | Horseweed plant response rating ([14]; 125 g ai/ha, preemergence): 100 | Plant response rating, Horseweed ([14]; Preemergence, 31 g ai/ha): 98 | Plant response rating, Field Bindweed ([15]; 16 g ai/ha, preemergence): 0 | Field Bindweed plant response rating ([15]; 62 g ai/ha, Preemergence): 0 | Field Bindweed plant response rating ([15]; 125 g ai/ha, preemergence): 0 | Plant response rating, Field Bindweed ([15]; Preemergence, 31 g ai/ha): 0 | Plant response rating, Mallow ([16]; 16 g ai/ha, preemergence): 0 | Mallow plant response rating ([16]; 125 g ai/ha, preemergence): 100 | Plant response rating, Mallow ([16]; Preemergence, 31 g ai/ha): 98
